Target: T1, TrkA kinase (Homo sapiens, UniProt P04629)
T1 construct: purchased Upstate, USA
Experiment: In vitro TrkA inhibitory activity using TR-FRET assay
Type: biochemical
Details: 5 ng TrkA, 500 μM ATP, both bounds given in nm, read-out: TrkA inhibitory activity in-vitro IC50
Experimental: Determination of In Vitro TrkA Inhibitory Activity Using TR-FRET Assay
Compounds were screened in the TR-FRET assay with TrkA kinase. 5 ng of TrkA [Upstate, USA] kinase was used for assay. The compound was incubated with the kinase for 30 minutes at 20-35° C. After the incubation, substrate mix [40 nM Ultra light poly GT (Perkin Elmer, USA) and 500 μM ATP] was added. The above reaction was stopped by the addition of 40 mM EDTA after 30 minutes. The Eu-labelled antiphospho-tyrosine antibody [Perkin Elmer, USA] was added at 0.5 nM and the fluorescence emission at 615 nm/665 nm [excitation at 340 nm] was measured. The compounds were initially screened at 100 nM, 1 μM and 10 μM concentrations. The potent compounds with >25% inhibition at 1 μM of TrkA were taken for the full dose response studies. The final DMSO concentration in the assay was […]. For IC50 determination, ⅓^rd serial dilution was made from the 20 mM DMSO stock solution. 2 μl of these were transferred to the test wells containing 20 μl reaction mixture [Total reaction volume 22 μl]. The fluorescence was measured in Perkin Elmer Wallac 1420 Multilabel Counter Victor 3. The IC50 was determined by fitting the dose response data to a sigmoidal curve fitting equation using GraphPad Prism software version 5.

T1 sequence (P04629 33-796): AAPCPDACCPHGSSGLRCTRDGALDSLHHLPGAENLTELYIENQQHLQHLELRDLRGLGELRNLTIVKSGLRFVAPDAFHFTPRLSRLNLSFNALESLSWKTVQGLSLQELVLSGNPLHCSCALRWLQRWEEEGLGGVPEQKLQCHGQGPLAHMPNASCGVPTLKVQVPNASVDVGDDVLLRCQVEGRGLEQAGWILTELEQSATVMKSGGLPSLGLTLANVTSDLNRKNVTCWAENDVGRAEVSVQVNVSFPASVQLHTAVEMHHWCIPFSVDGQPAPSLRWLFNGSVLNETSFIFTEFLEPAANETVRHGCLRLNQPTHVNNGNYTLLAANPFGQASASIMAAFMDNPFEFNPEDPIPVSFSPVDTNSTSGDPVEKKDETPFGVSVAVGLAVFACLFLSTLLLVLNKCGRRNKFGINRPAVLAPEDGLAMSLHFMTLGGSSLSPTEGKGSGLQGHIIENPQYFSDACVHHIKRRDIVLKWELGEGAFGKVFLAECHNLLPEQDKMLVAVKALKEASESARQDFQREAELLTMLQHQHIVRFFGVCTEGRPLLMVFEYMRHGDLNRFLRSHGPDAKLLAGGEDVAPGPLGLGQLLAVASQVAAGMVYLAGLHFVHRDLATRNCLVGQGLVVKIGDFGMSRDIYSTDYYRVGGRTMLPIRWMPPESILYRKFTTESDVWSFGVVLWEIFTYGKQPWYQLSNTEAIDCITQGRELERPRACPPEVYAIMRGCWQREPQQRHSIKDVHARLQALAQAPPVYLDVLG

SMILES	IC50
O=C(NS(=O)(=O)C1CC1)c1cnn2ccc(N3CCC[C@@H]3c3cc(F)ccc3F)cc12 [Example 5, (R)-N-(cyclopropylsulfonyl)-5-(2-(2,5-difluorophenyl)pyrrolidin-1-yl)pyrazolo[1,5-a]pyridine-3-carboxamide]	0.1 to 0.5 µM
CS(=O)(=O)NC(=O)c1cnn2ccc(N3CCC[C@@H]3c3cc(F)ccc3F)cc12 [Example 6, (R)-5-(2-(2,5-difluorophenyl)pyrrolidin-1-yl)-N-(methylsulfonyl)pyrazolo[1,5-a]pyridine-3-carboxamide]	0.1 to 0.5 µM
Cc1noc(C)c1S(=O)(=O)NC(=O)c1cnn2ccc(N3CCC[C@@H]3c3cc(F)ccc3F)cc12 [Example 11, (R)-5-(2-(2,5-difluorophenyl)pyrrolidin-1-yl)-N-((3,5-dimethylisoxazol-4-yl)sulfonyl) pyrazolo[1,5-a]pyridine-3-carboxamide]	0.1 to 0.5 µM
O=C(NS(=O)(=O)C1CCCCC1)c1cnn2ccc(N3CCC[C@@H]3c3cc(F)ccc3F)cc12 [Example 12, (R)-N-(cyclohexylsulfonyl)-5-(2-(2,5-difluorophenyl)pyrrolidin-1-yl)pyrazolo[1,5-a] pyridine-3-carboxamide]	0.1 to 0.5 µM
O=C(NS(=O)(=O)C1CCCC1)c1cnn2ccc(N3CCC[C@@H]3c3cc(F)ccc3F)cc12 [Example 13, (R)-N-(cyclopentylsulfonyl)-5-(2-(2,5-difluorophenyl)pyrrolidin-1-yl)pyrazolo[1,5-a] pyridine-3-carboxamide]	0.1 to 0.5 µM
CC(C)CS(=O)(=O)NC(=O)c1cnn2ccc(N3CCC[C@@H]3c3cc(F)ccc3F)cc12 [Example 14, (R)-5-(2-(2,5-difluorophenyl)pyrrolidin-1-yl)-N-(isobutylsulfonyl)pyrazolo[1,5-a] pyridine-3-carboxamide]	0.1 to 0.5 µM

Now from value to molecule:

IC50	SMILES
0.1 to 0.5 µM	CC(C)(C)S(=O)(=O)NC(=O)c1cnn2ccc(N3CC(F)(F)CC3c3cc(F)ccc3F)cc12 (single isomer, unassigned) [Example 56]
0.1 to 0.5 µM	Cn1nccc1S(=O)(=O)NC(=O)c1cnn2ccc(N3CCC[C@@H]3c3cc(F)ccc3F)cc12 [Example 19, (R)-5-(2-(2,5-difluorophenyl)pyrrolidin-1-yl)-N-((1-methyl-1H-pyrazol-5-yl)sulfonyl) pyrazolo[1,5-a]pyridine-3-carboxamide]
0.1 to 0.5 µM	Cc1nc(C)c(S(=O)(=O)NC(=O)c2cnn3ccc(N4CCC[C@@H]4c4cc(F)ccc4F)cc23)s1 [Example 20, (R)-5-(2-(2,5-difluorophenyl)pyrrolidin-1-yl)-N-((2,4-dimethylthiazol-5-yl)sulfonyl) pyrazolo[1,5-a]pyridine-3-carboxamide]
0.1 to 0.5 µM	O=C(NS(=O)(=O)C1CCOCC1)c1cnn2ccc(N3CCC[C@@H]3c3cc(F)ccc3F)cc12 [Example 22, (R)-5-(2-(2,5-difluorophenyl)pyrrolidin-1-yl)-N-((tetrahydro-2H-pyran-4-yl)sulfonyl) pyrazolo[1,5-a]pyridine-3-carboxamide]
0.1 to 0.5 µM	CN(C)c1ccc(S(=O)(=O)NC(=O)c2cnn3ccc(N4CCC[C@@H]4c4cc(F)ccc4F)cc23)cn1 [Example 23, (R)-5-(2-(2,5-difluorophenyl)pyrrolidin-1-yl)-N-((6-(dimethylamino)pyridin-3-yl)sulfonyl)pyrazolo[1,5-a] pyridine-3-carboxamide]
0.1 to 0.5 µM	O=C(NS(=O)(=O)c1ccc(-n2cncn2)nc1)c1cnn2ccc(N3CCC[C@@H]3c3cc(F)ccc3F)cc12 [Example 27, (R)-N-((6-(1H-1,2,4-triazol-1-yl)pyridin-3-yl)sulfonyl)-5-(2-(2,5-difluorophenyl)pyrrolidin-1-yl)pyrazolo[1,5-a]pyridine-3-carboxamide]
0.1 to 0.5 µM	Cn1cc(S(=O)(=O)NC(=O)c2cnn3ccc(N4CCC[C@@H]4c4cc(F)ccc4F)cc23)cn1 [Example 28, (R)-5-(2-(2,5-difluorophenyl)pyrrolidin-1-yl)-N-((1-methyl-1H-pyrazol-4-yl)sulfonyl) pyrazolo[1,5-a]pyridine-3-carboxamide]

Same assay, conditions: 5 ng TrkA, 500 μM ATP, lower bound in nm [sic], upper bound in μM, read-out: TrkA inhibitory activity in-vitro IC50

IC50	SMILES
0.5 to 1 µM	Cc1nc(S(=O)(=O)NC(=O)c2cnn3ccc(N4CCC[C@@H]4c4cc(F)ccc4F)cc23)cn1C [Example 15, (R)-5-(2-(2,5-difluorophenyl)pyrrolidin-1-yl)-N-((1,2-dimethyl-1H-imidazol-4-yl)sulfonyl)pyrazolo[1,5-a] pyridine-3-carboxamide]
0.5 to 1 µM	CN1C(=O)Cc2cc(S(=O)(=O)NC(=O)c3cnn4ccc(N5CCC[C@@H]5c5cc(F)ccc5F)cc34)ccc21 [Example 21, (R)-5-(2-(2,5-difluorophenyl)pyrrolidin-1-yl)-N-((1-methyl-2-oxoindolin-5-yl)sulfonyl) pyrazolo[1,5-a]pyridine-3-carboxamide]

Same assay, conditions: 5 ng TrkA, 500 μM ATP, read-out: TrkA inhibition in-vitro IC50

IC50	SMILES
≤ 0.05 µM	CC(C)S(=O)(=O)NC(=O)c1cnn2ccc(N3CCC[C@@H]3c3cc(F)ccc3F)cc12 [Example 7, (R)-5-(2-(2,5-difluorophenyl)pyrrolidin-1-yl)-N-(isopropylsulfonyl)pyrazolo[1,5-a] pyridine-3-carboxamide]
≤ 0.05 µM	O=C(NS(=O)(=O)c1ccc(N2CC[C@H](O)C2)cc1)c1cnn2ccc(N3CCC[C@@H]3c3cc(F)ccc3F)cc12 [Example 8, 5-((R)-2-(2,5-difluorophenyl)pyrrolidin-1-yl)-N-((4-((S)-3-hydroxypyrrolidin-1-yl)phenyl)sulfonyl)pyrazolo[1,5-a] pyridine-3-carboxamide]
≤ 0.05 µM	CN(C(=O)c1cnn2ccc(N3CCC[C@@H]3c3cc(F)ccc3F)cc12)S(=O)(=O)c1cccc(C#N)c1 [Example 9, (R)-N-((3-cyanophenyl)sulfonyl)-5-(2-(2,5-difluorophenyl)pyrrolidin-1-yl)-N-methylpyrazolo[1,5-a] pyridine-3-carboxamide]

Same assay, conditions: 5 ng TrkA, 500 μM ATP, read-out: TrkA inhibitory activity in-vitro IC50

SMILES	IC50
Cc1ncc(S(=O)(=O)NC(=O)c2cnn3ccc(N4CCC[C@@H]4c4cc(F)ccc4F)cc23)n1C [Example 16, (R)-5-(2-(2,5-difluorophenyl)pyrrolidin-1-yl)-N-((1,2-dimethyl-1H-imidazol-5-yl)sulfonyl)pyrazolo[1,5-a] pyridine-3-carboxamide]	1 to 10 µM
O=C(NS(=O)(=O)C1CCNCC1)c1cnn2ccc(N3CCC[C@@H]3c3cc(F)ccc3F)cc12 [Example 17, (R)-5-(2-(2,5-difluorophenyl)pyrrolidin-1-yl)-N-(piperidin-4-ylsulfonyl)pyrazolo[1,5-a] pyridine-3-carboxamide]	1 to 10 µM

Other lines, results leading:

IC50	SMILES
1 to 10 µM	CC(C)(C)S(=O)(=O)NC(=O)c1cnn2ccc(N3CCCC3c3cc(F)cc4c3OCCO4)cc12 (single isomer, unassigned) [Example 51, N-(tert-butylsulfonyl)-5-(2-(7-fluoro-2,3-dihydrobenzo [b][1,4]dioxin-5-yl)pyrrolidin-1-yl)pyrazolo[1,5-a]pyridine-3-carboxamide]
1 to 10 µM	CC(C)(C)S(=O)(=O)NC(=O)c1cnn2ccc(N3C[C@@H](F)CC3c3cc(F)ccc3F)cc12 (single isomer, unassigned) [Example 53]
1 to 10 µM	CC(C)(C)S(=O)(=O)NC(=O)c1cnn2ccc(N3CC(F)(F)CC3c3cc(F)ccc3F)cc12 (single isomer, unassigned) [Example 55]
1 to 10 µM	Cn1cnc(S(=O)(=O)NC(=O)c2cnn3ccc(N4CCC[C@@H]4c4cc(F)ccc4F)cc23)c1 [Example 18, (R)-5-(2-(2,5-difluorophenyl)pyrrolidin-1-yl)-N-((1-methyl-1H-imidazol-4-yl)sulfonyl) pyrazolo[1,5-a]pyridine-3-carboxamide]

From patent US10047087B2, “Substituted pyrazolo[1,5-A] pyridine as tropomyosin receptor kinase (TrK) inhibitors” (Dr. Reddy's Laboratories Ltd., priority 2011, dated 2018)
